Target: T1, human RXFP1 (Homo sapiens, UniProt Q9HBX9)
T1 construct: expressed in transfected cells
T1 sequence (Q9HBX9 1-757): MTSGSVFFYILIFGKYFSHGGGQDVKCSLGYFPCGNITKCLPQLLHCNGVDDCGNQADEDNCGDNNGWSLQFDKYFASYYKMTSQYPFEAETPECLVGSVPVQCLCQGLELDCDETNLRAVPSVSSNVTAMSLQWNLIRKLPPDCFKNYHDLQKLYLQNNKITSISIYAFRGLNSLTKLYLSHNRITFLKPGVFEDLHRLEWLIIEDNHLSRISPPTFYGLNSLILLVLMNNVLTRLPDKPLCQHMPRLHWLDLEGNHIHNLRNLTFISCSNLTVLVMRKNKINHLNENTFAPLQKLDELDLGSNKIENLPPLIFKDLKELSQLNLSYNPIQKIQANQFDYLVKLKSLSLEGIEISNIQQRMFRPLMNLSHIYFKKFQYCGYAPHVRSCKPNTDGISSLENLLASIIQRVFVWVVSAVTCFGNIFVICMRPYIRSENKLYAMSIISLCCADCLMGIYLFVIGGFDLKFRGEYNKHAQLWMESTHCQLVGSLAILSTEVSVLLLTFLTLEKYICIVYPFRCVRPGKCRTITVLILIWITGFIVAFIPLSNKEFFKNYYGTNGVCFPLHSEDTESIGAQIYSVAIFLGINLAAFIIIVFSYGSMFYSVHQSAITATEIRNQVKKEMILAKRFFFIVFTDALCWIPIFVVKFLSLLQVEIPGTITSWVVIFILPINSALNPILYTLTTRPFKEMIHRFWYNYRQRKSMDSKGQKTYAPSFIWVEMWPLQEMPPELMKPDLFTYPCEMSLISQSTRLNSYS
Experiment: RXFP1 cyclic adenosine monophosphate (cAMP) assay, hRXFP1 HEK293
Assay type: cell-based
Conditions: HEK293 cells stably expressing human RXFP1; 30 min at room temperature; HTRF cAMP
Procedure: RXFP1 Cyclic Adenosine Monophosphate (cAMP) Assays. Human embryonic kidney cells 293 (HEK293) cells and HEK293 cells stably expressing human RXFP1, were cultured in MEM medium supplemented with 10% qualified FBS, and 300 μg/ml hygromycin (Life Technologies). Cells were dissociated and suspended in assay buffer. The assay buffer was HBSS buffer (with calcium and magnesium) containing 20 mM HEPES, 0.05% BSA, and 0.5 mM IBMX. Cells (3000 cells per well, except 1500 cell per well for HEK293 cells stably expressing human RXFP1) were added to 384-well Proxiplates (Perkin-Elmer). Cells were immediately treated with test compounds in DMSO (2% final) at final concentrations in the range of 0.010 nM to 50 μM. Cells were incubated for 30 min at room temperature. The level of intracellular cAMP was determined using the HTRF HiRange cAMP assay reagent kit (Cisbio) according to manufacturer's instructions. Solutions of cryptate conjugated anti-cAMP and d2 fluorophore-labelled cAMP were made in a supplied lysis buffer separately. Upon completion of the reaction, the cells were lysed with equal volume of the d2-cAMP solution and anti-cAMP solution. After a 1 h room temperature incubation, time-resolved fluorescence intensity was measured using the Envision (Perkin-Elmer) at 400 nm excitation and dual emission at 590 nm and 665 nm. A calibration curve was constructed with an external cAMP standard at concentrations ranging from 2.7 μM to 0.1 μM by plotting the fluorescent intensity ratio from 665 nm emission to the intensity from the 590 nm emission against cAMP concentrations. The potency and activity of a compound to […] cAMP production was then determined by fitting to a 4-parametric logistic equation from a plot of cAMP level versus compound concentrations.
The examples disclosed below were tested in the human RXFP1 (hRXFP) HEK293 cAMP assay described above and found to have agonist activity. Tables 1-3, lists EC50 values in the hRXFP1 HEK293 cAMP assay measured for the examples.
Table A lists EC50 values in the hRXFP1 HEK293 cAMP assay measured for the examples.

EC50 [nM]	Compound
127	COc1ccc(-c2cc(C(C)(C)O)on2)cc1C(=O)Nc1cc2c(cc1C(=O)Nc1ccc(F)c(C(F)(F)F)c1)OC(F)(F)O2 [Example 74]
487	COc1ccc(C2=NOC(C(C)(C)O)C2)cc1C(=O)Nc1cc2c(cc1C(=O)Nc1ccc(F)c(C(F)(F)F)c1)OC(F)(F)O2 (single isomer, unassigned) [Example 77, 2,2-difluoro-N-(4-fluoro-3-(trifluoromethyl)phenyl)-6-(5-(5-(2-hydroxypropan-2-yl)-4,5-dihydroisoxazol-3-yl)-2-methoxybenzamido) benzo[d][1,3]dioxole-5-carboxamide]
8.4	CC1(C)Cc2cc(C3=NOC4CC(CO)CC34)cc(C(=O)Nc3cc4c(cc3C(=O)Nc3ccc(F)c(C(F)(F)F)c3)OC(F)(F)O4)c2O1 (stereo not drawn) [Example 100, 2,2-difluoro-N-(4-fluoro-3-(trifluoromethyl)phenyl)-6-(5-(5-(hydroxymethyl)-3a,5,6,6a-tetrahydro-4H-cyclopentafdlisoxazol-3-yl)-2,2-dimethyl-2,3-dihydrobenzofuran-7-carboxamido)benzo[d] [1,3]dioxole-5-carboxamide]
274	COc1ccc(CN2CC3(C2)CS(=O)(=O)C3)cc1C(=O)Nc1cc2c(cc1C(=O)Nc1ccc(F)c(C(F)(F)F)c1)OC(F)(F)O2 [Example 88, 6-(5-((2,2-dioxido-2-thia-6-azaspiro[3.3]heptan-6-yl)methyl)-2-methoxybenzamido)-2,2-difluoro-N-(4-fluoro-3-(trifluoromethyl)phenyl) benzo[d][1,3]dioxole-5-carboxamide]
42	COc1ccc(C2=NOC3(CCN(CC(N)=O)CC3)C2)cc1C(=O)Nc1cc2c(cc1C(=O)Nc1ccc(F)c(C(F)(F)F)c1)OC(F)(F)O2 [Example 69, 6-(5-(8-(2-amino-2-oxoethyl)-1-oxa-2,8-diazaspiro[4.5]dec-2-en-3-yl)-2-methoxybenzamido)-2,2-difluoro-N-(4-fluoro-3-(trifluoromethyl)phenyl) benzo[d][1,3]dioxole-5-carboxamide]
862	COc1ccc(C2CCCN(C3COC3)CC2)cc1C(=O)Nc1cc2c(cc1C(=O)Nc1ccc(F)c(C(F)(F)F)c1)OC(F)(F)O2 (stereo not drawn) [Example 95, 2,2-difluoro-N-(4-fluoro-3-(trifluoromethyl)phenyl)-6-(2-methoxy-5-(1-(oxetan-3-yl)azepan-4-yl)benzamido)benzo[d] [1,3]dioxole-5-carboxamide]
144	COc1ccc(-c2cnc3n2CCN(CC(N)=O)C3)cc1C(=O)Nc1cc2c(cc1C(=O)Nc1ccc(F)c(C(F)(F)F)c1)OC(F)(F)O2 [Example 82, 6-(5-(7-(2-amino-2-oxoethyl)-5,6,7,8-tetrahydroimidazo[1,2-a]pyrazin-3-yl)-2-methoxybenzamido)-2,2-difluoro-N-(4-fluoro-3-(trifluoromethyl)phenyl) benzo[d][1,3]dioxole-5-carboxamide]
43	COc1ccc(C2=NOC(C)(CO)C2)cc1C(=O)Nc1cc2c(cc1C(=O)Nc1ccc(F)c(C(F)(F)F)c1)OC(F)(F)O2 (single isomer, unassigned) [Example 71, 2,2-difluoro-N-(4-fluoro-3-(trifluoromethyl)phenyl)-6-(5-(5-(hydroxymethyl)-5-methyl-4,5-dihydroisoxazol-3-yl)-2-methoxybenzamido) benzo[d][1,3]dioxole-5-carboxamide]
1400	O=C(Nc1cc2c(cc1C(=O)Nc1ccc(F)c(C(F)(F)F)c1)OC(F)(F)O2)c1csc(C2=NOC3COCC23)n1 (single isomer, unassigned) [Example 94, N-(2,2-difluoro-6-((4-fluoro-3-(trifluoromethyl)phenyl)carbamoyl)benzo[d][1,3]dioxol-5-yl)-2-(3a,4,6,6a-tetrahydrofuro[3,4-d]isoxazol-3-yl)thiazole-4-carboxamide]

Continued, molecule first:

Compound	EC50 [nM]
COc1ccc(C2=NOC3CC(O)CC23)cc1C(=O)Nc1cc2nc(C)sc2cc1C(=O)Nc1ccc(F)c(C(F)(F)F)c1 (single isomer, unassigned) [Example 8, N-(4-fluoro-3-(trifluorometh-yl)phenyl)-5-(5-(5-hydroxy-3a,5,6,6a-tetra-hydro-4H-cyclopenta[d]isoxazol-3-yl)-2-methoxy-benzamido)-2-methylbenzo [d]thiazole-6-carboxamide]	40
COc1ccc(N2CC(CN)CC2=O)cc1C(=O)Nc1cc2nc(C)sc2cc1C(=O)Nc1ccc(F)c(C(F)(F)F)c1 (stereo not drawn) [Example 21, 5-(5-(4-(ami-nomethyl)-2-oxopyrrolidin-1-yl)-2-meth-oxybenzami-do)-N-(4-fluoro-3-(tri-fluoromethyl)-phenyl)-2-methylbenzo [d]thiazole-6-carboxamide]	4100
COc1ccc(C(=O)N2CC[C@@H](O)C2)cc1C(=O)Nc1cc2c(cc1C(=O)Nc1ccc(F)c(C(F)(F)F)c1)OC(F)(F)O2 [Example 40, (R)-2,2-difluoro-N-(4-fluoro-3-(trifluoromethyl)phenyl)-6-(5-(3-hydroxypyrrolidine-1-carbonyl)-2-methoxybenzamido) benzo[d][1,3]dioxole-5-carboxamide]	196
COc1ccc(C#CC(C)(C)O)cc1C(=O)Nc1cc2c(C)noc2cc1C(=O)Nc1ccc(F)c(C(F)(F)F)c1 [Example 34, N-(4-fluoro-3-(trifluoromethyl)phenyl)-5-(5-(3-hydroxy-3-methylbut-1-yn-1-yl)-2-methoxybenzamido)-methylbenzo[d]isoxazole-6-carboxamide]	1340
COc1ccc(C(=O)N2CC(C(C)(C)O)C2)cc1C(=O)Nc1cc2c(cc1C(=O)Nc1ccc(F)c(C(F)(F)F)c1)OC(F)(F)O2 [Example 38, 2,2-difluoro-N-(4-fluoro-3-(trifluoromethyl)phenyl)-6-(5-(3-(2-hydroxypropan-2-yl)azetidine-1-carbonyl)-2-methoxybenzamido) benzo[d][1,3]dioxole-5-carboxamide]	84
COc1ccc(C2=NOC3CNCC23)cc1C(=O)Nc1cc2c(cc1C(=O)Nc1ccc(F)c(C(F)(F)F)c1)OC(F)(F)O2 (single isomer, unassigned) [Example 43, 2,2-difluoro-N-(4-fluoro-3-(trifluoromethyl)phenyl)-6-(2-methoxy-5-(3a,5,6,6a-tetrahydro-4H-pyrrolo[3,4-d]isoxazol-3-yl)benzamido)benzo[d][1,3]dioxole-5-carboxamide]	13
COc1ccc(-c2cc(C(=O)Nc3cc[nH]n3)ccc2F)cc1C(=O)Nc1cc2c(cc1C(=O)Nc1ccc(F)c(C(F)(F)F)c1)OC(F)(F)O2 [Example 48]	196
COc1ccc(C2=NOC3CC(CO)CC23)cc1C(=O)Nc1cc2nc(C)sc2cc1C(=O)NC1CCCC1 (stereo not drawn) [Example 19, N-cyclopent-yl-5-(5-(5-(hydroxymeth-yl)-3a,5,6,6a-tetrahydro-4H-cyclopenta[d]isoxazol-3-yl)-2-methoxy-benzamido)-2-methylbenzo [d]thiazole-6-carboxamide]	1000
COc1ccc(C2CCN(C(=O)C(C)(C)O)C2)cc1C(=O)Nc1cc2c(cc1C(=O)Nc1ccc(F)c(C(F)(F)F)c1)OC(F)(F)O2 (single isomer, unassigned) [Example 46, 2,2-difluoro-N-(4-fluoro-3-(trifluoromethyl)phenyl)-6-(5-(1-(2-hydroxy-2-methylpropanoyl)pyrrolidin-3-yl)-2-methoxybenzamido)benzo[d][1,3]dioxole-5-carboxamide]	49
